From patent US12077503B2, “Substituted cyclic amides and their use as herbicides” (FMC CORPORATION, priority 2015, dated 2024)

What was measured:
Assay type in all cases: in vivo
[1] = tested on: barnyardgrass (Echinochloa crus-galli); experiment: Test A postemergence; conditions: Echinochloa crus-galli, post-emergence, 240 h, Postemergence; for pest or weed control at 125 g/ha: 125 g ai/ha, visual rating about 10 d after treatment, read-out: Barnyardgrass plant response rating (0 to 100 scale, 0 no effect, 100 complete control); for pest or weed control at 500 g/ha: 500 g ai/ha, visual injury, 0 to 100 scale (0 no effect, 100 complete control), approx. 10 d, read-out: Plant response rating, Barnyardgrass
Outline: (§1)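 Compounds were formulated in a non-phytotoxic solvent mixture with surfactant and applied as a preemergence directed soil spray after seeding, or sprayed postemergence over plants 2 to 10 cm tall at the one- to two-leaf stage. Evaluation after about 10 d compared treated with untreated controls, using a scale from 0 (no effect) to 100 (complete control).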

[2] = tested on: giant foxtail (Setaria faberii); experiment: Test A postemergence; conditions: Setaria faberi, post-emergence, 240 h, Postemergence; for pest or weed control at 125 g/ha: 125 g ai/ha, visual rating about 10 d after treatment, read-out: Foxtail, Giant plant response rating (0 to 100 scale); for pest or weed control at 500 g/ha: 500 g ai/ha, visual injury, 0 to 100 scale (0 no effect, 100 complete control), approx. 10 d, read-out: Plant response rating, Foxtail, Giant
Outline: as §1

Kochia (Kochia scoparia) [3] = experiment: Test A postemergence; conditions: Bassia scoparia, post-emergence, 240 h, Postemergence; for pest or weed control at 125 g/ha: 125 g ai/ha, visual rating about 10 d after treatment, read-out: Kochia plant response rating (0 to 100 scale); for pest or weed control at 500 g/ha: 500 g ai/ha, visual injury, 0 to 100 scale (0 no effect, 100 complete control), approx. 10 d, read-out: Plant response rating, Kochia
Outline: as §1

[4] = tested on: blackgrass (Alopecurus myosuroides); experiment: Test A postemergence; conditions: Alopecurus myosuroides, post-emergence, 240 h, Postemergence; for pest or weed control at 125 g/ha: 125 g ai/ha, visual rating about 10 d after treatment, read-out: Blackgrass plant response rating (0 to 100 scale); for pest or weed control at 500 g/ha: 500 g ai/ha, visual injury, 0 to 100 scale (0 no effect, 100 complete control), approx. 10 d, read-out: Plant response rating, Blackgrass
Outline: as §1

[5] = tested on: ragweed (common ragweed, Ambrosia elatior); experiment: Test A postemergence; conditions: Ambrosia artemisiifolia, post-emergence, 240 h, Postemergence; for pest or weed control at 125 g/ha: 125 g ai/ha, visual rating about 10 d after treatment, read-out: Ragweed plant response rating (0 to 100 scale); for pest or weed control at 500 g/ha: 500 g ai/ha, visual injury, 0 to 100 scale (0 no effect, 100 complete control), approx. 10 d, read-out: Plant response rating, Ragweed
Outline: as §1

[6] = tested on: sedge, umbrella (small-flower umbrella sedge, Cyperus difformis); experiment: Test B flooded paddy test; conditions: Cyperus difformis, 250 g ai/ha, Flood; 0 to 100 scale where 0 is no effect and 100 is complete control; read-out: Sedge, Umbrella plant response rating
Outline: (§2)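 Greenhouse paddy pots with 2-leaf stage plants received compound by direct addition to floodwater 3 cm deep, kept at that level. Scored visually at 13–15 d versus controls (0 no effect; 100 complete control).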

rice (Oryra sativa) = experiment: Test B flooded paddy test; conditions: Oryza sativa, 250 g ai/ha, Flood; 0 to 100 scale where 0 is no effect and 100 is complete control; read-out: Rice plant response rating
Outline: as §2

[7] = tested on: barnyardgrass (Echinochloa crus-galli); experiment: Test B flooded paddy test; conditions: Echinochloa crus-galli, 250 g ai/ha, Flood; 0 to 100 scale where 0 is no effect and 100 is complete control; read-out: Barnyardgrass plant response rating
Outline: as §2

[8] = tested on: ducksalad (Heteranthera limosa); experiment: Test B flooded paddy test; conditions: Heteranthera limosa, 250 g ai/ha, Flood; 0 to 100 scale where 0 is no effect and 100 is complete control; read-out: Ducksalad plant response rating
Outline: as §2

[9] = tested on: ryegrass, Italian (Italian ryegrass, Lolium multiflorum); experiment: Test A preemergence; conditions: Lolium multiflorum, pre-emergence, 240 h, preemergence, 0 to 100 scale where 0 is no effect and 100 is complete control, read-out: Ryegrass, Italian plant response rating; for pest or weed control at 125 g/ha: 125 g ai/ha, visual injury rating, approximately 10 d; for pest or weed control at 500 g/ha: 500 g ai/ha
Outline: as §1

[10] = tested on: barnyardgrass (Echinochloa crus-galli); experiment: Test A preemergence; conditions: Echinochloa crus-galli, pre-emergence, 240 h, preemergence, 0 to 100 scale where 0 is no effect and 100 is complete control, read-out: Barnyardgrass plant response rating; for pest or weed control at 125 g/ha: 125 g ai/ha, visual injury rating, approximately 10 d; for pest or weed control at 500 g/ha: 500 g ai/ha
Outline: as §1

[11] = tested on: giant foxtail (Setaria faberii); experiment: Test A preemergence; conditions: Setaria faberi, pre-emergence, 240 h, preemergence, 0 to 100 scale where 0 is no effect and 100 is complete control, read-out: Foxtail, Giant plant response rating; for pest or weed control at 125 g/ha: 125 g ai/ha, visual injury rating, approximately 10 d; for pest or weed control at 500 g/ha: 500 g ai/ha
Outline: as §1

Kochia (Kochia scoparia) [12] = experiment: Test A preemergence; conditions: Bassia scoparia, pre-emergence, 240 h, preemergence, 0 to 100 scale where 0 is no effect and 100 is complete control, read-out: Kochia plant response rating; for pest or weed control at 125 g/ha: 125 g ai/ha, visual injury rating, approximately 10 d; for pest or weed control at 500 g/ha: 500 g ai/ha
Outline: as §1

[13] = tested on: pigweed (Amaranthus retroflexus); experiment: Test A preemergence; conditions: Amaranthus retroflexus, pre-emergence, 240 h, preemergence, 0 to 100 scale where 0 is no effect and 100 is complete control, read-out: Pigweed plant response rating; for pest or weed control at 125 g/ha: 125 g ai/ha, visual injury rating, approximately 10 d; for pest or weed control at 500 g/ha: 500 g ai/ha
[14] = tested on: ragweed (common ragweed, Ambrosia elatior); experiment: Test A preemergence; conditions: Ambrosia artemisiifolia, pre-emergence, 240 h, preemergence, 0 to 100 scale where 0 is no effect and 100 is complete control, read-out: Ragweed plant response rating; for pest or weed control at 125 g/ha: 125 g ai/ha, visual injury rating, approximately 10 d; for pest or weed control at 500 g/ha: 500 g ai/ha
Outline: as §1

Structure (SMILES) | pest or weed control at 125 g/ha [1] [%] | pest or weed control at 500 g/ha [1] [%] | pest or weed control at 125 g/ha [2] [%] | pest or weed control at 500 g/ha [2] [%] | pest or weed control at 125 g/ha (Kochia (Kochia scoparia) [3]) [%] | pest or weed control at 500 g/ha (Kochia (Kochia scoparia) [3]) [%] | pest or weed control at 125 g/ha [4] [%] | pest or weed control at 500 g/ha [4] [%] | pest or weed control at 125 g/ha [5] [%] | pest or weed control at 500 g/ha [5] [%] | pest or weed control at 250 g/ha [6] [%] | pest or weed control at 250 g/ha (rice (Oryra sativa)) [%] | pest or weed control at 250 g/ha [7] [%] | pest or weed control at 250 g/ha [8] [%] | pest or weed control at 125 g/ha [9] [%] | pest or weed control at 500 g/ha [9] [%] | pest or weed control at 125 g/ha [10] [%] | pest or weed control at 500 g/ha [10] [%] | pest or weed control at 125 g/ha [11] [%] | pest or weed control at 500 g/ha [11] [%] | other results
COc1cc([C@H]2CN(C)C(=O)[C@@H]2C(=O)Nc2ccccc2S(C)(=O)=O)ccc1F [Compound 1302] | 60 | 90 | 30 | 80 | 0 | 20 | 0 | 20 | 0 | 0 | 0 | 15 | 20 | 80 | 0 | 0 | 60 | 90 | 90 | 90 | pest or weed control at 125 g/ha (Kochia (Kochia scoparia) [12]): 0%; pest or weed control at 500 g/ha (Kochia (Kochia scoparia) [12]): 60%; pest or weed control at 125 g/ha [13]: 0%; pest or weed control at 500 g/ha [13]: 30%; pest or weed control at 125 g/ha [14]: 0%; pest or weed control at 500 g/ha [14]: 50%
O=C1NC[C@H](c2nccc(C(F)(F)F)n2)[C@H]1C(=O)Nc1ccccc1F [Compound 1304] | 0 | 0 | 0 | 0 | 0 | 0 | 0 | 0 | 0 | 0 | 0 | 0 | 0 | 0 | 0 | 0 | 0 | 0 | 0 | 0 | pest or weed control at 125 g/ha (Kochia (Kochia scoparia) [12]): 0%; pest or weed control at 500 g/ha (Kochia (Kochia scoparia) [12]): 0%; pest or weed control at 125 g/ha [13]: 0%; pest or weed control at 500 g/ha [13]: 0%; pest or weed control at 125 g/ha [14]: 0%; pest or weed control at 500 g/ha [14]: 0%
CSc1ccccc1NC(=O)[C@H]1C(=O)NC[C@@H]1c1cc(C)cc(F)c1 [Compound 1306] | 20 | 90 | 0 | 20 | 0 | 60 | 0 | 0 | 0 | 0 | 0 | 0 | 20 | 100 | 0 | 0 | 60 | 90 | 30 | 90 | pest or weed control at 125 g/ha (Kochia (Kochia scoparia) [12]): 0%; pest or weed control at 500 g/ha (Kochia (Kochia scoparia) [12]): 70%; pest or weed control at 125 g/ha [13]: 0%; pest or weed control at 500 g/ha [13]: 0%; pest or weed control at 125 g/ha [14]: 40%; pest or weed control at 500 g/ha [14]: 60%
Cc1cc(F)cc([C@H]2CNC(=O)[C@@H]2C(=O)Nc2ccccc2S(C)(=O)=O)c1 [Compound 1307] | 40 | 90 | 0 | 20 | 0 | 40 | 0 | 0 | 0 | 0 | 0 | 20 | 30 | 100 | 0 | 0 | 80 | 90 | 50 | 90 | pest or weed control at 125 g/ha (Kochia (Kochia scoparia) [12]): 20%; pest or weed control at 500 g/ha (Kochia (Kochia scoparia) [12]): 90%; pest or weed control at 125 g/ha [13]: 0%; pest or weed control at 500 g/ha [13]: 0%; pest or weed control at 500 g/ha [14]: 60%
Cc1cc(F)cc([C@H]2CNC(=O)[C@@H]2C(=O)Nc2cccc(F)c2C)c1 [Compound 1308] | 80 | 80 | 20 | 80 | 0 | 0 | 30 | 50 | 0 | 20 | 0 | 40 | 65 | 100 | 0 | 0 | 90 | 90 | 90 | 90 | pest or weed control at 125 g/ha (Kochia (Kochia scoparia) [12]): 0%; pest or weed control at 500 g/ha (Kochia (Kochia scoparia) [12]): 50%; pest or weed control at 125 g/ha [13]: 0%; pest or weed control at 500 g/ha [13]: 20%; pest or weed control at 125 g/ha [14]: 0%; pest or weed control at 500 g/ha [14]: 70%
